Like-named read-outs stand apart in the source and are kept apart here.
Key:
Rhesus PDE2A3 = Rhesus PDE2A3 (Macaca mulatta, UniProt B3VTJ2); assay: PDE2 fluorescence polarization (IMAP FP) inhibition assay, rhesus PDE2A3; type: biochemical, rhesus macaque
human PDE2A1 = human PDE2A1 (Homo sapiens (Human), UniProt O00408); assay: PDE2 IMAP FP inhibition assay, human PDE2A1 (selectivity panel format); type: biochemical
Procedure, shortened: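 Enzyme dosed to give about 20% substrate turnover acts for 60 min at room temperature on 50 nM FAM-cAMP plus 1000 nM cGMP (Tris pH 7.2, MgCl2, DTT, Tween-20 buffer). IMAP binding solution then stops the reaction; after 1 h, polarization is measured from parallel and perpendicular fluorescence.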

P-glycoprotein (P-gp) = P-glycoprotein (P-gp) (Homo sapiens (Human), UniProt P08183); assay: P-gp transport, experimental BA/AB ratio, human; type: in vitro ADME; settings: LLC-PK1, 1 μM substrate concentration
Chain of P-glycoprotein (P-gp) (P08183 whole entry): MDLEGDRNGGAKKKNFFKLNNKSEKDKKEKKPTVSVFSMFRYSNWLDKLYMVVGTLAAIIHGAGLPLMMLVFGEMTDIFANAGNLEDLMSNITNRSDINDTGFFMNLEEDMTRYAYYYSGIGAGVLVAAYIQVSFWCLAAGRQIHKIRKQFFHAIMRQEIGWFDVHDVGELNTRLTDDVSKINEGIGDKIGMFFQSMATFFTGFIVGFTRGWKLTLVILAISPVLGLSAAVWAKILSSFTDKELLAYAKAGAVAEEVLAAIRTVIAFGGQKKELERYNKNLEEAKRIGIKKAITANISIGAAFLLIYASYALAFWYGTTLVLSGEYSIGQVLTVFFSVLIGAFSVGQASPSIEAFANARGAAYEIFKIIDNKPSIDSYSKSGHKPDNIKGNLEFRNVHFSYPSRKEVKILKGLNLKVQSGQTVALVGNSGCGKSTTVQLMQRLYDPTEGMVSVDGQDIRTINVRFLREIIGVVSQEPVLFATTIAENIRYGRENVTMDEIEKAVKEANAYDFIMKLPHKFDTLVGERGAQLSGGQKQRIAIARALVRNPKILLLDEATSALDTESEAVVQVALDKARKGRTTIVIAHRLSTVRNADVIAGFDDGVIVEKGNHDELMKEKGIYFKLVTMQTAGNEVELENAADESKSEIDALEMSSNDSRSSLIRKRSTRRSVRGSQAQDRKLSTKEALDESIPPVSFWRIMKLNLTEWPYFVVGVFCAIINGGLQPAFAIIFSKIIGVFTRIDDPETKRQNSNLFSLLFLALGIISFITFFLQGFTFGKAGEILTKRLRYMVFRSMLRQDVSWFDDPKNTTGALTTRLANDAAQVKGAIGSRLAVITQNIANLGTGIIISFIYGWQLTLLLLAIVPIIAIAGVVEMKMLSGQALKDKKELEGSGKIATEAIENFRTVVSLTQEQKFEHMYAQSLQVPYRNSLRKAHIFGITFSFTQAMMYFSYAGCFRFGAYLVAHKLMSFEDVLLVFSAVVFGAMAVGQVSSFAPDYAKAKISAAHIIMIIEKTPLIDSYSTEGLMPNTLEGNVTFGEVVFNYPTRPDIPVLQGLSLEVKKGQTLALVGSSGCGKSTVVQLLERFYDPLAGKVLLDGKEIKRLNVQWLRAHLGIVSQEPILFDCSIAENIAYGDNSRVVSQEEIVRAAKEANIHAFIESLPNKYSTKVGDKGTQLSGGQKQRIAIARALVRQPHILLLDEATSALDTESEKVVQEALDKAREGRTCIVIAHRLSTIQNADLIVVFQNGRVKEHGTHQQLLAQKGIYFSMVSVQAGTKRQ
Text: (§1) See Doan et al. “Passive permeability and P-glycoprotein-mediated efflux differentiate central nervous system (CNS) and non-CNS marketed drugs”, J. Pharm. Exper. […] Desirable human BA/AB ratio is less than 2.0. […] See, for example, Desai, et al. Integration of in Silico and in Vitro Tools for Scaffold Optimization during Drug Discovery: Predicting P-glycoprotein Efflux” Mol. Pharmac.

[1] = molecular target: P-glycoprotein (P-gp, rat Mdr1a) (Rattus norvegicus, UniProt Q6PSM0); assay: P-gp transport, experimental BA/AB ratio, rat LLC-Mdr1a; type: in vitro ADME; settings: LLC-PK1; rat LLC-Mdrla; 1 μM substrate concentration
Chain of P-glycoprotein (P-gp, rat Mdr1a) (Q6PSM0 1-1272): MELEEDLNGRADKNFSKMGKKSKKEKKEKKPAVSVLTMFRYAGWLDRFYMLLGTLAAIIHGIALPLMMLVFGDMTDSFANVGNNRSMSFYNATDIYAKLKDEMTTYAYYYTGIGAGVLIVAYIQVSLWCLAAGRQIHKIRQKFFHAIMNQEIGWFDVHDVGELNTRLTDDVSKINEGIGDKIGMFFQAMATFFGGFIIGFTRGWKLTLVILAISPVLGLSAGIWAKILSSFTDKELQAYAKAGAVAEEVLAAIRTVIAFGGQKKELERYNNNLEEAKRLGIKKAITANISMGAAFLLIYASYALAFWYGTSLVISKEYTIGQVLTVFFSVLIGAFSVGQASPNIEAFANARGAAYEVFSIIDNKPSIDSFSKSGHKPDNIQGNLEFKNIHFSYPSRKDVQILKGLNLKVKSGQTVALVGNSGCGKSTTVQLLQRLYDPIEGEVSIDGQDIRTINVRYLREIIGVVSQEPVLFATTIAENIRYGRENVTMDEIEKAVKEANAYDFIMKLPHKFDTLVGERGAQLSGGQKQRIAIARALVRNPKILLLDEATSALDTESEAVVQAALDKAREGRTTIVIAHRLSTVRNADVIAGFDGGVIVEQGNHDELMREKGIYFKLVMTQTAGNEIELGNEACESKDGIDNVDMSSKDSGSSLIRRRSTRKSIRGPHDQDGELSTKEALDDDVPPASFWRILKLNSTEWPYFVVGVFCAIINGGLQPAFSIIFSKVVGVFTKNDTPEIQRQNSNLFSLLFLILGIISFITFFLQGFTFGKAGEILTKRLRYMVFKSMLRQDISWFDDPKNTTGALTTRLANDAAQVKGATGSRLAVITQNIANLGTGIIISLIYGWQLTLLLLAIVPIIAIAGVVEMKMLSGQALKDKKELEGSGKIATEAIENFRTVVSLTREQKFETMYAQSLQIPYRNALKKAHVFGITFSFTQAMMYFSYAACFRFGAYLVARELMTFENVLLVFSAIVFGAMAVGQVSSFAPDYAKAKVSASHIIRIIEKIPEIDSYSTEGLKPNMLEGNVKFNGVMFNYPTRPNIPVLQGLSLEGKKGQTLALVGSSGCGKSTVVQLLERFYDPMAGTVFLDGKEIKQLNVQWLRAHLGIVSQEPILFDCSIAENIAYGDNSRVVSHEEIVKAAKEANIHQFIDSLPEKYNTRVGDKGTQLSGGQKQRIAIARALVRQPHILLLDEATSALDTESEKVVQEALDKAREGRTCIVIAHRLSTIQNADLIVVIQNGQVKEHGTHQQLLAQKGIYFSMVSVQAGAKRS
Text: as §1

[2] = Lab A, read-out: Rhesus PDE2 Ki (nM) - Lab A
[3] = Lab B, read-out: Rhesus PDE2 Ki (nM) - Lab B
[4] = Lab B, read-out: Human PDE2 Ki (nM) - Lab B
[5] = Lab A, read-out: Human PDE2 Ki (nM) - Lab A

Chain of human PDE2A1 (O00408 other isoform, or with tags, fused parts or gaps): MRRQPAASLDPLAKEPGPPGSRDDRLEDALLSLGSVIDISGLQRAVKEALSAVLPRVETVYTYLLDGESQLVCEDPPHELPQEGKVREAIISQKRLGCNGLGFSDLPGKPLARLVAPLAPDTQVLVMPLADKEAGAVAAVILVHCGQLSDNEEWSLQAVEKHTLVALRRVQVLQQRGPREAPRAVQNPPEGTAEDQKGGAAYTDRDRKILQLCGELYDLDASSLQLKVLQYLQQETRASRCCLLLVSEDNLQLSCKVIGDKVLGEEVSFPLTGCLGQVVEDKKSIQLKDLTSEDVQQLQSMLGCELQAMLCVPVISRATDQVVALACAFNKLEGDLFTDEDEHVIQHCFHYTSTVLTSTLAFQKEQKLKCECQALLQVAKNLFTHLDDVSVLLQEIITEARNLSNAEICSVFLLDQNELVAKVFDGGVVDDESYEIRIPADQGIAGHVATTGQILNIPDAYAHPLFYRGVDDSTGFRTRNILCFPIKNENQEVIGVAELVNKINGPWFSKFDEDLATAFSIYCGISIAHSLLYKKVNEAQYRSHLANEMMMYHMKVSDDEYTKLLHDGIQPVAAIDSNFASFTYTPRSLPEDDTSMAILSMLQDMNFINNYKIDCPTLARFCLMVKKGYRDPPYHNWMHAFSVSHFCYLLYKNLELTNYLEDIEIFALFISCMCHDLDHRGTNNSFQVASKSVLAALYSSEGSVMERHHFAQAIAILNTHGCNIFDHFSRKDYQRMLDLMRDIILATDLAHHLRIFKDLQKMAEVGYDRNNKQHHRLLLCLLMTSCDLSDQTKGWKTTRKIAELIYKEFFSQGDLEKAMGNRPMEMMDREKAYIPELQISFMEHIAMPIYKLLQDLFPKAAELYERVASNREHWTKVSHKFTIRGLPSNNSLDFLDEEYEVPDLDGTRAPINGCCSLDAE
Chain of Rhesus PDE2A3 (B3VTJ2 1-941): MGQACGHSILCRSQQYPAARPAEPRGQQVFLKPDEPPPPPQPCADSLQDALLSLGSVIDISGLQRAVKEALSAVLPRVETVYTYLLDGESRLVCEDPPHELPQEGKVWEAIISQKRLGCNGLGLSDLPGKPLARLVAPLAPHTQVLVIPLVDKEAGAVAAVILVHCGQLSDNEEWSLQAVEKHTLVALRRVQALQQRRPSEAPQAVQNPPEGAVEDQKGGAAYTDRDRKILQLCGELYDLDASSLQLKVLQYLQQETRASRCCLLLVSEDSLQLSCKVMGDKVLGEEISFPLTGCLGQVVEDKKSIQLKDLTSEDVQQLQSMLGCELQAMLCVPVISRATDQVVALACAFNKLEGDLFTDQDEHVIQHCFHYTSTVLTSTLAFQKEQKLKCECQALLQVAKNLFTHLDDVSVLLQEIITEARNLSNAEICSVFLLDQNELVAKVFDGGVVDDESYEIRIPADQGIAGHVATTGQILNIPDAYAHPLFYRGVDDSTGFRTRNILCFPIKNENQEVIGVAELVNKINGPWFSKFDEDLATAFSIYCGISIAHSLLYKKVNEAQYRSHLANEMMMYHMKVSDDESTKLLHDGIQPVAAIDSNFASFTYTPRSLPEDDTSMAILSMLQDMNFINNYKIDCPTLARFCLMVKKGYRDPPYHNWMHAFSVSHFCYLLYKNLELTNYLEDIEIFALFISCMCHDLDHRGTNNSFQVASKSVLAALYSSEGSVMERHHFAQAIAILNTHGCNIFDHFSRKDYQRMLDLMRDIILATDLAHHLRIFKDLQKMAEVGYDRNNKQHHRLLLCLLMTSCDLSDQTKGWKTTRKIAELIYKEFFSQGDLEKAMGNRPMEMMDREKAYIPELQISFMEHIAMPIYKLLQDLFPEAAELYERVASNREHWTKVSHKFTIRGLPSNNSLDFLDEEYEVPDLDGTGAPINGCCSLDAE

SMILES | Ki (Rhesus PDE2A3; [2]) [nM] | Ki (Rhesus PDE2A3; [3]) [nM] | Ki (human PDE2A1; [4]) [nM] | efflux ratio at 1 μM (P-glycoprotein (P-gp)) | efflux ratio at 1 μM [1] | Ki (human PDE2A1; [5]) [nM]
CN(C)c1nc(C(=O)N[C@@H](c2ccc(C(F)(F)F)c(F)c2)C2CC2)cc(=O)[nH]1 [Example 109, N-{(1R)-cyclopropyl[3-fluoro-4-(trifluoromethyl)phenyl]methyl}-2-(dimethylamino)-6-oxo-1,6-dihydropyrimidine-4-carboxamide] | 0.91 | 1.4 | 1.9 | 0.5 | 2.5 | 
O=C(N[C@@H](c1ccc(OC(F)(F)F)cc1)C1CC1)c1cc(=O)[nH]c(N2CCCC2)n1 [Example 114, N-{(R)-cyclopropyl[4-(trifluoromethoxy)phenyl]methyl}-6-oxo-2-pyrrolidin-1-yl-1,6-dihydropyrimidine-4-carboxamide] | 0.94 | 1.5 | 1.5 | 0.5 | 4 | 
C[C@@H](NC(=O)c1cc(=O)[nH]c(N2CCCCC2)n1)c1ccc(C(F)(F)F)cc1 [Example 131, 6-oxo-2-piperidin-1-yl-N-{(1R)-1-[4-(trifluoromethyl)phenyl]ethyl}-1,6-dihydropyrimidine-4-carboxamide] | 32 |  |  | 0.3 | 1.5 | 24
C[C@@H](NC(=O)c1cc(=O)[nH]c(N(C)C)n1)c1ccc(C(F)(F)F)cc1 [Example 133, 2-(dimethylamino)-6-oxo-N-{(1R)-1-[4-(trifluoromethyl)phenyl]ethyl}-1,6-dihydropyrimidine-4-carboxamide] | 2.5 | 2.8 | 2.3 | 0.5 | 1.8 | 2
CNc1nc(C(=O)N[C@H](C)c2ccc(C(F)(F)F)cc2)cc(=O)[nH]1 [Example 135, 2-(methylamino)-6-oxo-N-{(1R)-1-[4-(trifluoromethyl)phenyl]ethyl}-1,6-dihydropyrimidine-4-carboxamide] | 36 |  |  | 2.7 | 11.4 | 27
C[C@@H](NC(=O)c1cc(=O)[nH]c(NC2CCC2)n1)c1ccc(C(F)(F)F)cc1 [Example 138, 2-(cyclobutylamino)-6-oxo-N-{(1R)-1-[4-(trifluoromethyl)phenyl]ethyl}-1,6-dihydropyrimidine-4-carboxamide] | 67 |  |  | 1.2 | 29.8 | 38

Stronger by Ki (Rhesus PDE2A3; [2]), values ahead:

Ki (Rhesus PDE2A3; [2]) [nM] | Ki (Rhesus PDE2A3; [3]) [nM] | Ki (human PDE2A1; [4]) [nM] | efflux ratio at 1 μM (P-glycoprotein (P-gp)) | efflux ratio at 1 μM [1] | Ki (human PDE2A1; [5]) [nM] | SMILES
0.57 | 0.61 | 0.82 | 0.5 | 2.5 | 0.32 | C[C@@H](NC(=O)c1cc(=O)[nH]c(N(C)C)n1)c1ccc(SC(F)(F)F)cc1 [Example 143, 2-(dimethylamino)-6-oxo-N-[(1R)-1-{4-[(trifluoromethyl)sulfanyl]phenyl}ethyl]-1,6-dihydropyrimidine-4-carboxamide]
0.48 | 0.96 | 1.3 | 0.5 | 3.5 |  | CN(C)c1nc(C(=O)N[C@@H](c2ccc(OC(F)(F)F)c(F)c2)C2CC2)cc(=O)[nH]1 [Example 110, N-{(1R)-cyclopropyl[3-fluoro-4-(trifluoromethoxy)phenyl]methyl}-2-(dimethylamino)-6-oxo-1,6-dihydropyrimidine-4-carboxamide]
0.41 | 0.8 | 0.9 | 0.3 | 2 |  | CN(C)c1nc(C(=O)N[C@@H](c2ccc(SC(F)(F)F)cc2)C2CC2)cc(=O)[nH]1 [Example 111, N-[(R)-cyclopropyl{4-[(trifluoromethyl)sulfanyl]phenyl}methyl]-2-(dimethylamino)-6-oxo-1,6-dihydropyrimidine-4-carboxamide]
0.36 | 0.65 | 0.63 | 0.4 | 3.9 |  | O=C(N[C@@H](c1ccc(C2CC2)cc1)C1CC1)c1cc(=O)[nH]c(N2CCCC2)n1 [Example 113, N-[(R)-cyclopropyl(4-cyclopropylphenyl)methyl]-6-oxo-2-pyrrolidine-1-yl-1,6-dihydropyrimidine-4-carboxamide]
0.27 | 0.44 | 0.55 | 0.7 | 4.7 |  | CC(C)[C@@H](NC(=O)c1cc(=O)[nH]c(N(C)C)n1)c1ccc(C(F)(F)F)c(F)c1 [Example 112, 2-(dimethylamino)-N-{(1R)-1-[3-fluoro-4-(trifluoromethyl)phenyl]-2-methylpropyl}-6-oxo-1,6-dihydropyrimidine-4-carboxamide]
